Test results: patent publication US10206394B2, “Herbicidal compounds” (Syngenta Participations AG, priority 2014, dated 2019)
Where two headings read alike, the source gives them in different places.

How the values were obtained:
Experiment in all cases: Glasshouse assay for herbicidal activity (pre- and post-emergence), percentage phytotoxicity
Format in all cases: in vivo
[1] = tested on: Lolium perenne (LOLPE); conditions: Lolium perenne, Rate 250 g/ha, 100%=total damage, 0%=no damage
Procedure: (§1) Test—Glasshouse Assay for Herbicidal Activity
(§2) Seeds of a variety of monocotyledonous and dicotyledonous test plants are sown in standard soil in pots. The plants are cultivated for one day (for pre-emergence (PRE)) or for about 12 days (for post-emergence (POST)) under controlled conditions in a glasshouse (warm climate species at 24/18° C., cool climate species at 20/16° C., both at day/night; 16 hours light; 65% humidity).
(§3) The test plants are then grown on, in a glasshouse (greenhouse) under controlled conditions (warm climate species at 24/18° C., cool climate species at 20/16° C., both at day/night; 16 hours light; 65% humidity) and are watered twice daily. 15 days after application of the test herbicide (15 DAA) (for post-emergence), and 20 days after application of the test herbicide (20 DAA) (for pre-emergence), the test plants are evaluated visually, and an assessed percentage phytotoxicity score is given for each herbicidal application on each plant species (with 100%=total damage to plant; 0%=no damage to plant).
(§4) The plant species tested are as follows: Alopecurus myosuroides (ALOMY), Avena fatua (AVEFA), Lolium perenne (LOLPE), Echinochloa crus-galli (ECHCG).

[2] = tested on: Echinochloa crus-galli (ECHCG); conditions: Echinochloa crus-galli, Rate 250 g/ha, 100%=total damage, 0%=no damage
Procedure: as §1, §2, §3, §4

[3] = tested on: Alopecurus myosuroides (ALOMY); conditions: Alopecurus myosuroides, Rate 250 g/ha, 100%=total damage, 0%=no damage
Procedure: as §1, §2, §3, §4

[4] = tested on: Avena fatua (AVEFA); conditions: Avena fatua, Rate 250 g/ha, 100%=total damage, 0%=no damage
Procedure: as §1, §2, §3, §4

[5] = post-emergence, 360 h, post-emergence, assessed visually 15 DAA, read-out: Post-emergence herbicidal activity (percentage phytotoxicity) LOLPE POST
[6] = pre-emergence, 480 h, pre-emergence, assessed visually 20 DAA, read-out: Pre-emergence herbicidal activity (percentage phytotoxicity) LOLPE PRE
[7] = post-emergence, 360 h, post-emergence, assessed visually 15 DAA, read-out: Post-emergence herbicidal activity (percentage phytotoxicity) ECHCG POST
[8] = pre-emergence, 480 h, pre-emergence, assessed visually 20 DAA, read-out: Pre-emergence herbicidal activity (percentage phytotoxicity) ECHCG PRE
[9] = post-emergence, 360 h, post-emergence, assessed visually 15 DAA, read-out: Post-emergence herbicidal activity (percentage phytotoxicity) ALOMY POST
[10] = pre-emergence, 480 h, pre-emergence, assessed visually 20 DAA, read-out: Pre-emergence herbicidal activity (percentage phytotoxicity) ALOMY PRE
[11] = post-emergence, 360 h, post-emergence, assessed visually 15 DAA, read-out: Post-emergence herbicidal activity (percentage phytotoxicity) AVEFA POST
[12] = pre-emergence, 480 h, pre-emergence, assessed visually 20 DAA, read-out: Pre-emergence herbicidal activity (percentage phytotoxicity) AVEFA PRE

For `CC#Cc1cc(C)c(C2C(=O)CC(CC(=O)NC3CCC3)C2=O)c(C)c1` (stereo not drawn) [Compound A81], the pest or weed control at 250 g/ha [1, 5] was 90%, the pest or weed control at 250 g/ha [1, 6] was 100% and the pest or weed control at 250 g/ha [2, 7] was 100%. The pest or weed control at 250 g/ha [2, 8] was 100%, the pest or weed control at 250 g/ha [3, 9] was 90% and the pest or weed control at 250 g/ha [3, 10] was 100%. For the same compound, the pest or weed control at 250 g/ha [4, 11] was 100% and the pest or weed control at 250 g/ha [4, 12] was 100%.

Compound `Cc1cc(C)c(C2C(=O)CC(CC(=O)NC3(C#N)CC3)C2=O)c(C)c1` (stereo not drawn) [Compound A82] has a pest or weed control at 250 g/ha [1, 5] of 30%, a pest or weed control at 250 g/ha [2, 7] of 30% and a pest or weed control at 250 g/ha [3, 9] of 10%. It also gave a pest or weed control at 250 g/ha [4, 11] of 10%.

Work on `Cc1cc(C)c(C2C(=O)CC(CC(=O)NCC#N)C2=O)c(C)c1` (stereo not drawn) [Compound A83] yielded a pest or weed control at 250 g/ha [1, 5] of 30%, a pest or weed control at 250 g/ha [2, 7] of 70% and a pest or weed control at 250 g/ha [3, 9] of 50%. It also gave a pest or weed control at 250 g/ha [4, 11] of 10%.

`Cc1cc(C)c(C2C(=O)CC(CC(=O)NCc3cc(C)nn3C)C2=O)c(C)c1` (stereo not drawn) [Compound A84] gave a pest or weed control at 250 g/ha [1, 5] of 20%, a pest or weed control at 250 g/ha [1, 6] of 10% and a pest or weed control at 250 g/ha [2, 7] of 70%. For the same compound, the pest or weed control at 250 g/ha [2, 8] was 0%, the pest or weed control at 250 g/ha [3, 9] was 60% and the pest or weed control at 250 g/ha [3, 10] was 40%. For the same compound, the pest or weed control at 250 g/ha [4, 11] was 20% and the pest or weed control at 250 g/ha [4, 12] was 0%.

For `Cc1cc(C)c(C2C(=O)CC(CC(=O)NCCC#N)C2=O)c(C)c1` (stereo not drawn) [Compound A86], the pest or weed control at 250 g/ha [1, 5] was 50%, the pest or weed control at 250 g/ha [1, 6] was 10% and the pest or weed control at 250 g/ha [2, 7] was 80%. For the same compound, the pest or weed control at 250 g/ha [2, 8] was 20%, the pest or weed control at 250 g/ha [3, 9] was 30% and the pest or weed control at 250 g/ha [3, 10] was 0%. For the same compound, the pest or weed control at 250 g/ha [4, 11] was 40% and the pest or weed control at 250 g/ha [4, 12] was 0%.

With `COCCNC(=O)CC1CC(=O)C(c2c(C)cc(-c3ncc(F)cn3)cc2C)C1=O` (stereo not drawn) [Compound A87] the pest or weed control at 250 g/ha [1, 5] was 80%, the pest or weed control at 250 g/ha [1, 6] was 80% and the pest or weed control at 250 g/ha [2, 7] was 100%. It also gave a pest or weed control at 250 g/ha [2, 8] of 90%, a pest or weed control at 250 g/ha [3, 9] of 100% and a pest or weed control at 250 g/ha [3, 10] of 80%. The pest or weed control at 250 g/ha [4, 11] was 100% and the pest or weed control at 250 g/ha [4, 12] was 90%.

Compound `Cc1cccc(CNC(=O)CC2CC(=O)C(c3c(C)cc(C)cc3C)C2=O)c1` (stereo not drawn) [Compound A88] has a pest or weed control at 250 g/ha [1, 5] of 100%, a pest or weed control at 250 g/ha [1, 6] of 100% and a pest or weed control at 250 g/ha [2, 7] of 80%. The pest or weed control at 250 g/ha [2, 8] was 70%, the pest or weed control at 250 g/ha [3, 9] was 70% and the pest or weed control at 250 g/ha [3, 10] was 90%. The pest or weed control at 250 g/ha [4, 11] was 10% and the pest or weed control at 250 g/ha [4, 12] was 0%.

`Cc1cc(C)c(C2C(=O)CC(CC(=O)NCc3cccc(C(F)(F)F)c3)C2=O)c(C)c1` (stereo not drawn) [Compound A89] was tested, and the pest or weed control at 250 g/ha [1, 5] was 100%, the pest or weed control at 250 g/ha [1, 6] was 90% and the pest or weed control at 250 g/ha [2, 7] was 100%. For the same compound, the pest or weed control at 250 g/ha [2, 8] was 100%, the pest or weed control at 250 g/ha [3, 9] was 90% and the pest or weed control at 250 g/ha [3, 10] was 90%. It also gave a pest or weed control at 250 g/ha [4, 11] of 90% and a pest or weed control at 250 g/ha [4, 12] of 60%.

`COc1ccccc1CNC(=O)CC1CC(=O)C(c2c(C)cc(C)cc2C)C1=O` (stereo not drawn) [Compound A90] was tested, and the pest or weed control at 250 g/ha [1, 5] was 70%, the pest or weed control at 250 g/ha [1, 6] was 60% and the pest or weed control at 250 g/ha [2, 7] was 80%. The pest or weed control at 250 g/ha [2, 8] was 40%, the pest or weed control at 250 g/ha [3, 9] was 0% and the pest or weed control at 250 g/ha [3, 10] was 0%. For the same compound, the pest or weed control at 250 g/ha [4, 11] was 0% and the pest or weed control at 250 g/ha [4, 12] was 0%.

`Cc1cc(C)c(C2C(=O)CC(CC(=O)NCCC3=CCCCC3)C2=O)c(C)c1` (stereo not drawn) [Compound A91] was tested, and the pest or weed control at 250 g/ha [1, 5] was 70%, the pest or weed control at 250 g/ha [1, 6] was 70% and the pest or weed control at 250 g/ha [2, 7] was 0%. It also gave a pest or weed control at 250 g/ha [2, 8] of 20%, a pest or weed control at 250 g/ha [3, 9] of 10% and a pest or weed control at 250 g/ha [3, 10] of 30%. The pest or weed control at 250 g/ha [4, 11] was 0% and the pest or weed control at 250 g/ha [4, 12] was 30%.
